Marks after values point to notes of the source that are not given here.
What was measured:
Format in all cases: in vivo
[1] = system: cerebral ischemia model in Albino strain zebrafish; assay: Ponatinib-induced cerebral ischemia model in zebrafish; conditions: aspirin 50 μg/mL; for Incidence of cerebral ischemia: model control 100%
Description: Melanin allele mutated Albino strain zebrafish at 2 days post fertilization (2 dpf) was administered with an aqueous ponatinib solution (1 μg/mL) for 18 hours to establish a cerebral ischemia model in zebrafish. 180 melanin allele mutated Albino strain zebrafishes at 2 days post fertilization (2 dpf) were randomly selected. 30 zebrafishes were treated in each well (experiment group), and aqueous MS-SOD solutions with concentrations of 222, 667 and 2000 μg/mL were administrated respectively, the concentration of positive control drug aspirin was 50 μg/m L, and the normal control group and the model control group were set at the same time. The volume of each well was 3 mL. After MS-SOD treatment for a period of time, except for the normal control group, all the other experiment groups were simultaneously administrated with aqueous ponatinib solution to induce the cerebral ischemia model in zebrafish. After 18 hours of co-treatment with MS-SOD and ponatinib, 20 fish were randomly selected from each well and stained with o-Dianisidine. After staining, photos were taken and data were collected to count the number of zebrafish with cerebral ischemia and calculate the incidence of cerebral ischemia in zebrafish of each experiment group.

[2] = system: cerebral hemorrhage model in wild-type AB strain zebrafish; assay: Movement velocity in simvastatin-induced cerebral hemorrhage model in zebrafish; conditions: icariin 30 μM (Table 3 prints 25 μg/mL); for Movement velocity (mean ± SE): n = 10, model control 80, normal control 198 mm/s
Description: 5 dpf wild-type AB strain zebrafish was administered with an aqueous simvastatin solution (0.5 μM) for 18 hours to establish a cerebral hemorrhage model in zebrafish. 180 wild-type AB strain zebrafishes at 5 days post fertilization (5 dpf) were randomly selected and put in a six-well plate, 30 per well (experiment group). Aqueous MS-SOD solutions with concentrations of 222, 667 and 2000 μg/mL were administrated respectively, the concentration of positive control drug icariin was 30 μM, and the normal control group and the model control group were set at the same time. The volume of each well was 3 mL. After treatment of zebrafishes with samples for 4 hours, except for the normal control group, the other experiment groups were treated with simvastatin for 18 hours to establish the cerebral hemorrhage model. After the treatment, 10 zebrafishes from each group were randomly selected to measure the movement velocity (V) of zebrafish using a behavioral analyzer. The statistical significance of the movement velocity was used to evaluate the behavioral improvement effect of MS-SOD on cerebral hemorrhage. The formula of the behavioral improvement effect of MS-SOD on cerebral hemorrhage was as follows: [formula] Statistical analysis was performed using variance analysis and Dunnett's T-test, and p<0.05 indicated a significant difference.

[3] = system: cerebral hemorrhage model in wild-type AB strain zebrafish; assay: Blood flow volume in simvastatin-induced cerebral hemorrhage model in zebrafish; conditions: icariin 30 μM; for Blood flow volume (mean ± SE): n = 10, model control 0.13, normal control 0.30 nL/s
Description: 3 dpf wild-type AB strain zebrafish was administered with an aqueous simvastatin solution (0.5 μM) for 18 hours to establish a cerebral hemorrhage model in zebrafish. 180 wild-type AB strain zebrafishes at 3 days post fertilization (3 dpf) were randomly selected and put in a six-well plate, 30 per well (experiment group). Aqueous MS-SOD solutions with concentrations of 222, 667 and 2000 μg/mL were administrated respectively, the concentration of positive control drug icariin was 30 μM, and the normal control group (the zebrafishes were treated with water for fish) and the model control group were set at the same time. The volume of each well was 3 mL. After treatment of zebrafishes with samples for 4 hours, except for the normal control group, the other experiment groups were treated with simvastatin for 18 hours to establish the cerebral hemorrhage model. After the treatment, 10 zebrafishes from each group were randomly selected and placed in a heart rate and blood flow analysis system to record blood flow video of zebrafish, and analyze the blood flow volume (O) of zebrafish. The statistical significance of the blood flow volume was used to evaluate the improvement effect of MS-SOD on blood flow volume of cerebral hemorrhage. The formula of the improvement effect of MS-SOD on blood flow volume of cerebral hemorrhage was as follows: [formula] Statistical analysis was performed using variance analysis and Dunnett's T-test, and p<0.05 indicated a significant difference. 4.

[4] = system: cerebral hemorrhage model in wild-type AB strain zebrafish; assay: Simvastatin-induced cerebral hemorrhage model in zebrafish (incidence); conditions: icariin 30 μM; for Incidence of cerebral hemorrhage: model control 83%
Description: 1 dpf wild-type AB strain zebrafish was administered with an aqueous simvastatin solution (0.5 μM) for 18 hours to establish a cerebral hemorrhage model in zebrafish. 180 wild-type AB strain zebrafishes at 1 day post fertilization (1 dpf) were randomly selected and put in a six-well plate, 30 per well (experiment group). Simvastatin was used to induce a cerebral hemorrhage model in zebrafish. Aqueous MS-SOD solutions with concentrations of 222, 667 and 2000 μg/mL were administrated respectively, the concentration of positive control drug icariin was 30 μM, and the normal control group and the model control group were set at the same time. The volume of each well was 3 mL. After 18 hours of co-treatment with MS-SOD and simvastatin, 30 zebrafishes from each group were selected and observed under a microscope, photos were taken and saved. The number of zebrafish with cerebral hemorrhage was counted, and the incidence of cerebral hemorrhage in zebrafish of each experiment group was calculated.

Compound	Improvement effect on cerebral ischemia [1]	Number of zebrafish with cerebral ischemia ([1]; n = 20)	Incidence of cerebral ischemia ([1]; n = 20)	Incidence of cerebral ischemia ([1]; n = 20, listed as aspirin) [%]	Improvement effect on cerebral ischemia ([1]; listed as aspirin) [%]	Movement improvement effect [2]	Movement velocity (mean ± SE) [2] [mm/s]	Movement velocity (mean ± SE) ([2]; listed as icariin) [mm/s]	Movement improvement effect ([2]; listed as icariin) [%]	Blood flow volume improvement effect [3] [%]	Blood flow volume (mean ± SE) [3] [nL/s]	Blood flow volume (mean ± SE) ([3]; listed as icariin) [nL/s]	Improvement effect on cerebral hemorrhage [4]	Number of zebrafish with cerebral hemorrhage ([4]; n = 30)	Incidence of cerebral hemorrhage ([4]; n = 30)	Incidence of cerebral hemorrhage ([4]; n = 30, listed as icariin) [%]	Improvement effect on cerebral hemorrhage ([4]; listed as icariin) [%]
CC(=O)Oc1ccccc1C(=O)O [Aspirin, aspirin, reference compound]	65*** %	7	35*** %	35	65	–	–	–	–	–	–	–	–	–	–	–	–
COc1ccc(-c2oc3c(CC=C(C)C)c(O[C@@H]4O[C@H](CO)[C@@H](O)[C@H](O)[C@H]4O)cc(O)c3c(=O)c2O[C@@H]2O[C@@H](C)[C@H](O)[C@@H](O)[C@H]2O)cc1 [Icariin, icariin, reference compound]	–	–	–	–	–	22* %	106 ± 7	106	22	29	0.18 ± 0.025	0.18	32* %	17	56* %	57	32
